# Where two headings read alike, the source gives them in different places.
# Tested on: weeds
# Experiment: Actual control effects and combined effects of mixtures of active ingredients (i) and (ii), stem-leaf treatment, Gowing method
# Format: in vivo
# Protocol: According to the actual control effect and the property of the herbicides, the balance of the formula and other factors, the optimal ratio was determined. In the calculation formula: X represents the fresh weight inhibition rate when the active ingredient (i) is used in an amount of P; and Y represents the fresh weight inhibition rate when the active ingredient (ii) is used in an amount of Q. The statistical results are shown in Tables 9-11 below.
# [1] = Monochoria vaginalis, (ii) 3 g a.i./mu, 20 days
# [2] = Monochoria vaginalis, (ii) 5 g a.i./mu, 20 days
# [3] = Pontederia vaginalis, 480 h, Monochoria vaginalis, (ii) 5 g a.i./mu, stem-leaf treatment, 20 days, read-out: Control effect of (ii) alone at corresponding dose
# [4] = Echinochloa phyllopogon, (ii) 3 g a.i./mu, 20 days
# [5] = Pontederia vaginalis, 480 h, read-out: Control effect of (ii) alone at corresponding dose
# [6] = 480 h, Echinochloa phyllopogon, (ii) 0.6 g a.i./mu, stem-leaf treatment, 20 days, read-out: Control effect of (ii) alone at corresponding dose
# [7] = Echinochloa phyllopogon, (ii) 0.6 g a.i./mu, 20 days
structure (smiles),measurement,setting,value
COc1c(Cl)ccc(Cl)c1C(=O)O [Dicamba],Control effect of (ii) alone at corresponding dose,[1],50.9%
same,Control effect of (ii) alone at corresponding dose,[2],70.2%
same,pest or weed control at 45 g/ha,"Pontederia vaginalis, 480 h, Monochoria vaginalis, (ii) 3 g a.i./mu, stem-leaf treatment, 20 days, read-out: Control effect of (ii) alone at corresponding dose",50.9%
same,pest or weed control at 75 g/ha,[3],70.2%
O=C1C(Cl)C(CCl)CN1c1cccc(C(F)(F)F)c1 (centres unmarked) [Fluorochloridone],Control effect of (ii) alone at corresponding dose,[4],9.1%
same,Control effect of (ii) alone at corresponding dose,"Echinochloa phyllopogon, (ii) 3 g a.i./mu, stem-leaf treatment, 20 days",9.1%
same,Control effect of (ii) alone at corresponding dose,"Echinochloa phyllopogon, (ii) 30 g a.i./mu, 20 days",52.3%
CCCOP(=S)(OCCC)SCC(=O)N1CCCCC1C (centres unmarked) [Piperophos],Control effect of (ii) alone at corresponding dose,[1],9.9%
same,pest or weed control at 45 g/ha,[5],9.9%
same,pest or weed control at 450 g/ha,[5],41.2%
COc1cc(OC)nc(Oc2cccc(Oc3nc(OC)cc(OC)n3)c2C(=O)O)n1 [Bispyribac-sodium],pest or weed control at 9 g/ha,"480 h, Cyperus difformis, (ii) 0.6 g a.i./mu, 20 days, read-out: Control effect of (ii) alone at corresponding dose",39.5%
same,pest or weed control at 15 g/ha,"480 h, Cyperus difformis, (ii) 1 g a.i./mu, stem-leaf treatment, 20 days, read-out: Control effect of (ii) alone at corresponding dose",70.4%
same,Control effect of (ii) alone at corresponding dose,"Cyperus difformis, (ii) 1 g a.i./mu, 20 days",70.4%
CC(C)N1C(=O)c2ccccc2NS1(=O)=O [Bentazone],pest or weed control at 27 g/ha,"480 h, Cyperus difformis, (ii) 1.8 g a.i./mu, 20 days, read-out: Control effect of (ii) alone at corresponding dose",18.2%
same,pest or weed control at 135 g/ha,"480 h, Cyperus difformis, (ii) 9 g a.i./mu, stem-leaf treatment, 20 days, read-out: Control effect of (ii) alone at corresponding dose",40.4%
same,Control effect of (ii) alone at corresponding dose,"Cyperus difformis, (ii) 9 g a.i./mu, 20 days",40.4%
CSc1nc(NC(C)C)nc(NC(C)C)n1 [Prometryn],pest or weed control at 9 g/ha,[6],21.5%
same,pest or weed control at 300 g/ha,"480 h, Echinochloa phyllopogon, (ii) 20 g a.i./mu, stem-leaf treatment, 20 days, read-out: Control effect of (ii) alone at corresponding dose",68.2%
same,Control effect of (ii) alone at corresponding dose,[7],21.5%
same,Control effect of (ii) alone at corresponding dose,"Echinochloa phyllopogon, (ii) 20 g a.i./mu, 20 days",68.2%
CCNc1nc(Cl)nc(NC(C)(C)C)n1 [Terbuthylazine],pest or weed control at 9 g/ha,"480 h, Echinochloa phyllopogon, (ii) 0.6 g a.i./mu, 20 days, read-out: Control effect of (ii) alone at corresponding dose",0.95%
same,pest or weed control at […],"480 h, Echinochloa phyllopogon, (ii) 15 g a.i./mu, stem-leaf treatment, 20 days, read-out: Control effect of (ii) alone at corresponding dose",18.6%
same,Control effect of (ii) alone at corresponding dose,"Echinochloa phyllopogon, (ii) 15 g a.i./mu, 20 days",18.6%
COc1cc(OC)nc(NC(=O)NS(=O)(=O)c2c(C3=NOCC(C)O3)c(Cl)nn2C)n1 (centres unmarked) [Metazosulfuron],Control effect of (ii) alone at corresponding dose,"Monochoria vaginalis, (ii) 1 g a.i./mu, 20 days",25.6%
same,Control effect of (ii) alone at corresponding dose,"Monochoria vaginalis, (ii) 1 g a.i./mu, stem-leaf treatment, 20 days",25.6%
same,Control effect of (ii) alone at corresponding dose,"Monochoria vaginalis, (ii) 1.2 g a.i./mu, 20 days",30.3%
CC(C)c1ccc(NC(=O)N(C)C)cc1 [Isoproturon],pest or weed control at 9 g/ha,[6],20.3%
same,pest or weed control at 45 g/ha,"480 h, Echinochloa phyllopogon, (ii) 3 g a.i./mu, stem-leaf treatment, 20 days, read-out: Control effect of (ii) alone at corresponding dose",40.2%
same,Control effect of (ii) alone at corresponding dose,[7],20.3%
same,Control effect of (ii) alone at corresponding dose,[4],40.2%
CCOC(=O)C(Cl)Cc1cc(-n2nc(C)n(C(F)F)c2=O)c(F)cc1Cl (centres unmarked) [Carfentrazone-ethyl],pest or weed control at 3 g/ha,"480 h, Echinochloa phyllopogon, (ii) 0.2 g a.i./mu, stem-leaf treatment, 20 days, read-out: Control effect of (ii) alone at corresponding dose",5.3%
same,pest or weed control at 120 g/ha,"480 h, Echinochloa phyllopogon, (ii) 8 g a.i./mu, stem-leaf treatment, 20 days, read-out: Control effect of (ii) alone at corresponding dose",73.6%
same,Control effect of (ii) alone at corresponding dose,"Echinochloa phyllopogon, (ii) 0.2 g a.i./mu, 20 days",5.3%
same,Control effect of (ii) alone at corresponding dose,"Echinochloa phyllopogon, (ii) 8 g a.i./mu, 20 days",73.6%
CC1(C)CON(Cc2ccccc2Cl)C1=O [Clomazone],pest or weed control at 45 g/ha,"Dinebra chinensis, 480 h, Leptochloa chinensis, (ii) 3 g a.i./mu, 20 days, read-out: Control effect of (ii) alone at corresponding dose",16.8%
same,pest or weed control at […],"Dinebra chinensis, 480 h, Leptochloa chinensis, (ii) 15 g a.i./mu, stem-leaf treatment, 20 days, read-out: Control effect of (ii) alone at corresponding dose",53.6%
same,Control effect of (ii) alone at corresponding dose,"Leptochloa chinensis, (ii) 15 g a.i./mu, 20 days",53.6%
CC(C)c1nn(C(=O)NC(C)(C)C)c(=O)n1N [Amicarbazone],Control effect of (ii) alone at corresponding dose,[1],23.3%
same,Control effect of (ii) alone at corresponding dose,"Monochoria vaginalis, (ii) 3 g a.i./mu, stem-leaf treatment, 20 days",23.3%
same,Control effect of (ii) alone at corresponding dose,"Monochoria vaginalis, (ii) 10 g a.i./mu, 20 days",51.6%
same,Control effect of (ii) alone at corresponding dose,"Monochoria vaginalis, (ii) 10 g a.i./mu, stem-leaf treatment, 20 days",51.6%
CCC1(CC2(c3cccc(Cl)c3)CO2)C(=O)c2ccccc2C1=O (centres unmarked) [Indanofan],Control effect of (ii) alone at corresponding dose,[2],20.8%
same,pest or weed control at 75 g/ha,[3],20.8%
same,pest or weed control at 180 g/ha,"Pontederia vaginalis, 480 h, Monochoria vaginalis, (ii) 12 g a.i./mu, 20 days, read-out: Control effect of (ii) alone at corresponding dose",63.1%
